Measurements reported in patent US12472218B2, “Seneca valley virus (SVV) cellular receptor targeted oncotherapy” (Memorial Sloan-Kettering Cancer Center, priority 2015, dated 2025).

Experiments:
H1618 and DMS79 cells = experiment: IFN response activity assay: pre-treatment, SVV-GFP challenge, flow cytometry; details: then SVV-GFP 16 h, both cell lines; for GFP+ cells compared to untreated cells: 4 μM HDAC inhibitor pre-treatment 24 h
ANTXR1 KO H446 cells = experiment: SVV-Cy5 binding experiment, flow cytometry; set-up: species or system human; details: SVV-Cy5 30 min at 37° C.
Protocol: (§1) SVV was incubated with the amine-reactive Cy5 dye (GE Healthcare) in sodium carbonate buffer (pH 9.3) for 1 h at room temperature (RT). Excess dye was removed by filtration through gel filtration columns (GE Healthcare) in HEPES buffer. Virus aliquots were stored at −80° C. parental, ANTXR1 KO, and TEX2 KO H446 cells were incubated with SVV-Cy5 for 30 min at 37° C. in OptiMEM. The non-permissive SCLC cell line, DMS114, was used as a negative control. […] All compensation and gating were performed with FlowJo analysis software (TreeStar) as described below.

TEX2 KO H446 cells = experiment: SVV-Cy5 binding experiment, flow cytometry; set-up: species or system human; details: SVV-Cy5 30 min at 37° C.
Protocol: as §1

DMS114 cells = experiment: SVV-Cy5 binding experiment, flow cytometry; set-up: species or system human; details: SVV-Cy5 30 min at 37° C.; non-permissive negative control line
Protocol: as §1

parental H446 cells = experiment: SVV-Cy5 binding experiment, flow cytometry; set-up: species or system human; details: SVV-Cy5 30 min at 37° C.
Protocol: as §1

[1] = molecular target: T1, Seneca Valley Virus (SVV) (Seneca Valley Virus, UniProt Q155Z9 674-937; Q155Z9 151-434; Q155Z9 435-673; Q155Z9 80-150); experiment: co-immunoprecipitation on Protein G Dynabeads, Western blot with SVV rabbit antisera
T1 construct: domain: VP1;domain: VP2;domain: VP3;domain: VP4; also called SVV-001; WT SVV
T1 sequence 1: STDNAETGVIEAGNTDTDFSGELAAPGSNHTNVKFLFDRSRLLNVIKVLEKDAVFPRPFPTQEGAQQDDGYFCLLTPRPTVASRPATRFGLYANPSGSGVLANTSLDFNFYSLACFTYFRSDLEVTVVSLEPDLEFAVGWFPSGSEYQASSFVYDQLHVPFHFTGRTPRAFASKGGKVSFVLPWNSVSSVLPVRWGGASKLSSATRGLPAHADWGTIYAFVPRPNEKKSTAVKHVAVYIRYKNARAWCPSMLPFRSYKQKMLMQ
T1 sequence 2: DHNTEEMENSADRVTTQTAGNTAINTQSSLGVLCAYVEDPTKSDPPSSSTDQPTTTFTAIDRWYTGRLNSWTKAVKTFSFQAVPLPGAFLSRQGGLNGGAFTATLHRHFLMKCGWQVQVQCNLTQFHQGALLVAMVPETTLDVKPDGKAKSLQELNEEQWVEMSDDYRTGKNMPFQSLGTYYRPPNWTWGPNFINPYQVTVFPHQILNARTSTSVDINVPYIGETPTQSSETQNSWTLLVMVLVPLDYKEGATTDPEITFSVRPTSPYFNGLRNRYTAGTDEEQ
T1 sequence 3: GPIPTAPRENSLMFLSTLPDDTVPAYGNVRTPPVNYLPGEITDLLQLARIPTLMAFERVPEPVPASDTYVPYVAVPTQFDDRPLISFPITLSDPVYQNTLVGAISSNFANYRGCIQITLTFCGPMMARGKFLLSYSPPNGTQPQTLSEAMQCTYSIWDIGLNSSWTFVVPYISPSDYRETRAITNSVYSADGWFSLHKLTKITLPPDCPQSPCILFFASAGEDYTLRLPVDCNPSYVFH
T1 sequence 4: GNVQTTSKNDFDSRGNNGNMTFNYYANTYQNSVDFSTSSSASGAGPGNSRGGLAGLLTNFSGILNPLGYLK

SVV = experiment: Co-immunoprecipitation of SVV with Fc chimera proteins, Western blot; details: Fc protein on Protein G Dynabeads, SVV 2.0×10^10 vp, 2 h at 4° C.
SVV-GFP = experiment: Blocking experiment: SVV-GFP pre-incubated with Fc protein, then added to parental H446 cells; details: 5 μg/mL Fc protein with SVV-GFP (MOI=5) on ice 1 h, then parental H446 cells overnight

## O=C(CCCCCCC(=O)Nc1ccccc1)NO [SAHA, Vorinostat]
H1618 and DMS79 cells
  GFP+ cells compared to untreated cells: significant increase

## Nc1ccccc1NC(=O)c1ccc(CNC(=O)OCc2cccnc2)cc1 [MS-275]
H1618 and DMS79 cells
  GFP+ cells compared to untreated cells: significant increase

## SVV-Cy5: WT SVV labeled with the fluorophore Cy5
ANTXR1 KO H446 cells
  mean fluorescence (MF): 358
TEX2 KO H446 cells
  mean fluorescence (MF): 2,233
DMS114 cells
  mean fluorescence (MF): 425
Parental H446 cells
  mean fluorescence (MF): 2,373

## IFNα
H1618 and DMS79 cells; 25 Units/mL IFN pre-treatment 24 h
  SVV permissive, or GFP+ cells: decrease

B1: ANTXR2-Fc chimera (Fc fusion)
chain: QEQPSCRRAFDLYFVLDKSGSVANNWIEIYNFVQQLAERFVSPEMRLSFIVFSSQATIILPLTGDRGKISKGLEDLKRVSPVGETYIHEGLKLANEQIQKAGGLKTSSIIIALTDGKLDGLVPSYAEKEAKISRSLGASVYCVGVLDFEQAQLERIADSKEQVFPVKGGFQALKGIINSILAQSCTEILELQPSSVCVGEEFQIVLSGRGFMLGSRNGSVLCTYTVNETYTTSVKPVSVQLNSMLCPAPILNKAGETLDVSVSFNGGKSVISGSLIVTATECSNG
notes: Bought reagent; also called ANTXR2-Fc chimeric protein; ANTXR2-Fc protein; not shown: Fc part of the chimera; the control isotype is an IgG1 Fc
[1]
  binding result: no binding

B2: ANTXR2-Fc (protein)
chain: QEQPSCRRAFDLYFVLDKSGSVANNWIEIYNFVQQLAERFVSPEMRLSFIVFSSQATIILPLTGDRGKISKGLEDLKRVSPVGETYIHEGLKLANEQIQKAGGLKTSSIIIALTDGKLDGLVPSYAEKEAKISRSLGASVYCVGVLDFEQAQLERIADSKEQVFPVKGGFQALKGIINSILAQSCTEILELQPSSVCVGEEFQIVLSGRGFMLGSRNGSVLCTYTVNETYTTSVKPVSVQLNSMLCPAPILNKAGETLDVSVSFNGGKSVISGSLIVTATECSNG
modifications: left off: a dimerising Fc or GST
SVV
  SVV viral protein bands co-immunoprecipitated (direct interaction with SVV): absence of an interaction
SVV-GFP
  GFP+ cells (SVV-GFP infection) by fluorescence microscopy: high levels of GFP+ cells

B3: ANTXR1-Fc (protein)
chain: EDGGPACYGGFDLYFILDKSGSVLHHWNEIYYFVEQLAHKFISPQLRMSFIVFSTRGTTLMKLTEDREQIRQGLEELQKVLPGGDTYMHEGFERASEQIYYENRQGYRTASVIIALTDGELHEDLFFYSEREANRSRDLGAIVYCVGVKDFNETQLARIADSKDHVFPVNDGFQALQGIIHSILKKSCIEILAAEPSTICAGESFQVVVRGNGFRHARNVDRVLCSFKINDSVTLNEKPFSVEDTYLLCPAPILKEVGMKAALQVSMNDGLSFISSSVIITTTHCSDGS
modifications: left off: a dimerising Fc or GST
SVV
  SVV viral protein bands co-immunoprecipitated (direct interaction with SVV): viral protein bands were observed
SVV-GFP
  GFP+ cells (SVV-GFP infection) by fluorescence microscopy: no detectable GFP+ cells
